Source: patent US20100120700A1, “METHODS AND COMPOSITIONS FOR TREATING CERVICAL CANCER” (priority 2000, published 2010)

Tests used:
Serine Protease domain 1 = molecular target: T1, Serine Protease domain 1 (Homo sapiens, UniProt O43464); experiment: G assay PDZ-PL binding; details: peptide 10 uM, protein 5
T1 construct: made in house; host or cells: E. coli (DH5alpha, BL21 or JM109)
Description: (§1) (1) A PDZ-domain polypeptide is bound to a surface, e.g. a protein binding surface. In a preferred embodiment, a GST/PDZ fusion protein containing one or more PDZ domains is bound to a polystyrene 96-well plate. […] In one embodiment, the GST/PDZ fusion protein is bound via an anti-GST antibody that is coated onto the 96-well plate. Adequate binding to the plate can be achieved when: • a. 100 uL per well of 5 ug/mL goat anti-GST polyclonal antibody (Pierce) in PBS is added to a polystyrene 96-well plate (e.g., Num Polysorb) at 4° C. for 12 hours. • b. The plate is blocked by addition of 200 uL per well of PBS/BSA for 2 hours at 4° C. • c. The plate is washed 3 times with PBS. • d. 50 uL per well of 5 ug/mL GST/PDZ fusion protein) or, as a negative control, GST polypeptide alone (i.e. not a fusion protein) in PBS/BSA is added to the plate for 2 hours at 4° C. • e. The plate is again washed 3 times with PBS.
(§2) (2) Biotinylated PL peptides are allowed to react with the surface by addition of 50 uL per well of 20 uM solution of the biotinylated peptide in PBS/BSA for 10 minutes at 4° C., followed by an additional 20 minute incubation at 25° C.
(§3) (3) The binding of the biotinylated peptide to the GST/PDZ fusion protein surface can be detected using a variety of methods and detectors known to one of skill in the art. In one embodiment, 100 uL per well of 0.5 ug/mL streptavidin-horse radish peroxidase (HRP) conjugate dissolved in BSA/PBS is added and allowed to react for 20 minutes at 4° C. The plate is then washed 5 times with 50 mM Tris pH 8.0 containing 0.2% Tween 20, and developed by addition of 100 uL per well of HRP-substrate solution (TMB, Dako) for 20 minutes at room temperature (RT). The reaction of the HRP and its substrate is terminated by addition of 100 uL per well of 1M sulfuric acid, and the absorbance of each well of the plate is read at 450 nm.
(§4) (4) Specific binding of a PL peptide and a PDZ domain polypeptide is determined by comparing the signal from the well(s) in which the PL peptide and PDZ domain polypeptide are combined, with the background signal(s). The background signal is the signal found in the negative control(s). Typically a specific or selective reaction will be at least twice background signal, more typically more than 5 times background, and most typically 10 or more times the background signal. In addition, a statistically significant reaction will involve multiple measurements of the reaction with the signal and the background differing by at least two standard errors, more typically four standard errors, and most typically six or more standard errors. Correspondingly, a statistical test (e.g. a T-test) comparing repeated measurements of the signal with-repeated measurements of the background will result in a p-value<0.05, more typically a p-value<0.01, and most typically a p-value<0.001 or less. As noted, in an embodiment of the “G” assay, the signal from binding of a given PL peptide to immobilized (surface bound) GST polypeptide alone is one suitable negative control (sometimes referred to as “B 1”). Because all measurement are done in multiples (i.e. at least duplicate) the arithmetic mean (or, equivalently, average.) of several measurements is used in determining the binding, and the standard error of the mean is used in determining the probable error in the measurement of the binding. The standard error of the mean of N measurements equals the square root of the following: the sum of the squares of the difference between each measurement and the mean, divided by the product of (N) and (N−1). Thus, in one embodiment, specific binding of the PDZ protein to the platebound peptide is determined by comparing the mean signal (“mean S”) and standard error of the signal (“SE”) for a particular PL-PDZ combination with the mean B1. […]

KIAA0751 domain 1 = molecular target: T2, KIAA0751 domain 1 (Homo sapiens, UniProt Q9UQ26); experiment: G assay PDZ-PL binding; details: peptide 10 uM, protein 5
T2 construct: made in house; host or cells: E. coli (DH5alpha, BL21 or JM109)
T2 sequence (Q9UQ26 with tags, fused parts or gaps): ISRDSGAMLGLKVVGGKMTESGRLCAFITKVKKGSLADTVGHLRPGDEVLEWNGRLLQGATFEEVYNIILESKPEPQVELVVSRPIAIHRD
Description: as §1, §2, §3, §4

T1 sequence (O43464 344-452): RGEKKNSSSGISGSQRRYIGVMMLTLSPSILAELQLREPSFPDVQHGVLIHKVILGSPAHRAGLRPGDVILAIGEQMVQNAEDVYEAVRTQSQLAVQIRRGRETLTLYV

20 mer peptide corresponding to the C-terminus of HPV16 E6 (PDZ ligand), biotinylated in binding assays; ends SSRTRRETQL (SEQ ID NO: 13) [HPV E6 #16]
Ave OD (Serine Protease domain 1; A450 nm): 0.3425 | OD S/N (Serine Protease domain 1; vs GST only well): 1.55 | Ave OD (KIAA0751 domain 1; A450 nm): 0.4505 | OD S/N (KIAA0751 domain 1; vs GST only well): 2.10
